From US20250295799A1, “ANTIBODY-DRUG CONJUGATES TARGETING GLYPICAN-3 AND METHODS OF USE” (Zymeworks BC Inc., priority 2022, published 2025)

Key:
HepG2 cells (GPC3-high) = assay: On-cell binding by flow cytometry; conditions: 24 h at 4 °C
Protocol: Briefly, cells were seeded at 50,000 cells/well in V-bottom 96-well plates and treated with antibody for 24 hours at 4° C. to prevent internalization. […] Following incubation and washing, fluorescence was detected by flow cytometry on a BD LSRFortessa™ Cell Analyzer (BD Biosciences, Franklin Lake, NJ) with 1,000 minimum events collected per well.

JHH-7 cells (GPC3-high) = assay: On-cell binding by flow cytometry; conditions: 24 h at 4 °C
Protocol: Briefly, cells were seeded at 50,000 cells/well in V-bottom 96-well plates and treated with antibody for 24 hours at 4° C. to prevent internalization. […] Following incubation and washing, fluorescence was detected by flow cytometry on a BD LSRFortessa™ Cell Analyzer (BD Biosciences, Franklin Lake, NJ) with 1,000 minimum events collected per well. AF647/APC-A GeoMean (fluorescence signal geometric mean, proportional to anti-Human AF647 binding) in live cell population was plotted against antibody concentration using GraphPad Prism Version 9 (GraphPad Software, San Diego, CA). The Bmax, Curve Hill Slope (h) and Kd values were derived from the “Specific binding with Hill slope” nonlinear regression curve fit in GraphPad Prism Version 9.
The on-cell binding capabilities of light chain (LC)-modified M3-H18L6 antibody constructs were assessed on JHH-7 (hepatocellular carcinoma; GPC3-high) and JHH-5 (hepatocellular carcinoma; GPC3-mid) by flow cytometry as described below. […] The assay was carried out as described in Example 13.
Briefly, plasma stress was carried out by incubating M3-H18L6 LC-modified antibodies in mouse plasma (BioIVT, Westbury, NY; Cat. No. MSE00PL38NC-0103070) for 14 days in a 37° C./5% CO2 incubator. […] Following incubation and washing, fluorescence was detected by flow cytometry on a BD LSRFortessa™ Cell Analyzer (BD Biosciences, Franklin Lake, NJ) with 1,000 minimum events collected per well. AF647/APC-A GeoMean (fluorescence signal geometric mean, proportional to anti-Human AF647 binding) in live cell population was plotted against antibody concentration using GraphPad Prism Version 9 (GraphPad Software, San Diego, CA). […] Following incubation, cells were dissociated, washed, and surface AF488 fluorescence was quenched using an anti-AF488 antibody (Life Technologies, Carlsbad, CA; Cat. No. A-11094) at 100 nM for 30 minutes at 4° C. Quenched AF488 fluorescence (internalized fluorescence) was detected by flow cytometry on a BD LSRFortessa™ Cell Analyzer (BD Biosciences, Franklin Lake, NJ) with 1,000 minimum events collected per well.

[1] = tested on: Hep G2 cells (high GPC3-expressing); assay: Internalization by flow cytometry (quenched AF488); assay type: cell-based; conditions: antibody 10 nM
Protocol: (§1) Cells were seeded at 50,000 cells/well in 48-well plates and incubated overnight under standard culturing conditions (37° C./5% CO2) in Gibco™ Dulbecco's Modified Eagle Media (DMEM) (Thermo Fisher Scientific, Waltham, MA; Cat. No. 11995040) with 10% Fetal Bovine Serum (FBS) (Thermo Fisher Scientific, Waltham, MA; Cat. No. 12483020) for Hep G2 cells, and Gibco™ William's E Medium, GlutaMAX™ Supplement (Thermo Fisher Scientific, Waltham, MA; Cat. No. 32551020) with 10% FBS (Thermo Fisher Scientific, Waltham, MA; Cat. No. 12483020) for JHH-7 cells. Coupled antibodies were added to cells the following day at 10 nM or at 100 nM and incubated under standard culturing conditions for 5-24 hours to allow for internalization. Following incubation, cells were dissociated, washed, and surface AF488 fluorescence was quenched using an anti-AF488 antibody (Life Technologies, Carlsbad, CA; Cat. No. A-11094) at 100 nM for 30 minutes at 4° C. Quenched AF488 fluorescence (internalized fluorescence) was detected by flow cytometry on a BD LSRFortessa™ Cell Analyzer (BD Biosciences, Franklin Lake, NJ) with 1,000 minimum events collected per well.

[2] = tested on: JHH-7 cells (high GPC3-expressing); assay: Internalization by flow cytometry (quenched AF488); assay type: cell-based; conditions: antibody 10 nM
Protocol: as §1
as §1, with “CO2)” for “CO2) in Gibco™ Dulbecco's Modified Eagle Media (DMEM) (Thermo Fisher Scientific, Waltham, MA; Cat. No. 11995040) with 10% Fetal Bovine Serum (FBS) (Thermo Fisher Scientific, Waltham, MA; Cat. No. 12483020) for Hep G2 cells, and”, “12483020).” for “12483020) for JHH-7 cells.”, “5” for “10 nM or at 100”, “24” for “5-24”, “well. […]” for “well.”

Question: What does the source list for palivizumab [v22277 (palivizumab)]?
Answer: Kd (HepG2 cells (GPC3-high)): > 60 nM; Kd (JHH-7 cells (GPC3-high)): > 60 nM; Internalized fluorescence, fold increase over palivizumab, Hep G2, 5 hours ([1]; 5 hours): 1.0 fold; Internalized fluorescence, fold increase over palivizumab, Hep G2, 24 hours ([1]; 24 hours): 1.0 fold; Internalized fluorescence, fold increase over palivizumab, JHH-7, 5 hours ([2]; 5 hours): 1.0 fold; Internalized fluorescence, fold increase over palivizumab, JHH-7, 24 hours ([2]; 24 hours): 1.0 fold
